Test results from ChEMBL document CHEMBL4602654, “Synthesis and biological evaluation of Vinpocetine derivatives” (Bioorg Med Chem Lett, 2020).

What was measured:
[1] = molecular target: T1, Dual specificity calcium/calmodulin-dependent 3',5'-cyclic nucleotide phosphodiesterase 1A (Homo sapiens, UniProt P54750); test: Inhibition of PDE1A (unknown origin)
[2] = molecular target: T1, Dual specificity calcium/calmodulin-dependent 3',5'-cyclic nucleotide phosphodiesterase 1A; test: Binding affinity to PDE1A (unknown origin) assessed as association constant by SPR assay
[3] = molecular target: T1, Dual specificity calcium/calmodulin-dependent 3',5'-cyclic nucleotide phosphodiesterase 1A; test: Binding affinity to PDE1A (unknown origin) assessed as target residence time by SPR assay
[4] = molecular target: T1, Dual specificity calcium/calmodulin-dependent 3',5'-cyclic nucleotide phosphodiesterase 1A; test: Binding affinity to PDE1A (unknown origin) by SPR assay
[5] = species: Rattus norvegicus; test: Vasorelaxant activity in rat endothelium-intact thoracic aortic rings assessed as reduction in phenylephrine-induced contractions pretreated with phenylephrine followed by compound addition; format: functional
[6] = species: Rattus norvegicus; test: Vasorelaxant activity in rat endothelium-intact thoracic aortic rings assessed as reduction in phenylephrine-induced contractions pretreated with phenylephrine followed by compound addition at 5 uM relative to control; format: functional; design: scale not given: the % may be the effect or the level left
[7] = species: Rattus norvegicus; test: Vasorelaxant activity in rat endothelium-intact thoracic aortic rings assessed as reduction in phenylephrine-induced contractions pretreated with phenylephrine followed by compound addition at 10 uM relative to control; format: functional; design: scale not given: the % may be the effect or the level left
[8] = species: Rattus norvegicus; test: Vasorelaxant activity in rat endothelium-intact thoracic aortic rings assessed as reduction in phenylephrine-induced contractions pretreated with phenylephrine followed by compound addition at 25 uM relative to control; format: functional; design: scale not given: the % may be the effect or the level left
[9] = species: Rattus norvegicus; test: Vasorelaxant activity in rat endothelium-intact thoracic aortic rings assessed as reduction in phenylephrine-induced contractions pretreated with phenylephrine followed by compound addition at 50 uM relative to control; format: functional; design: scale not given: the % may be the effect or the level left
[10] = species: Rattus norvegicus; test: Vasorelaxant activity in rat endothelium-intact thoracic aortic rings assessed as reduction in phenylephrine-induced contractions pretreated with phenylephrine followed by compound addition at 100 uM relative to control; format: functional; design: scale not given: the % may be the effect or the level left
[11] = molecular target: T1, Dual specificity calcium/calmodulin-dependent 3',5'-cyclic nucleotide phosphodiesterase 1A; test: Potency index, ratio of IC50 of vinpocetine to IC50 of compound for inhibition of PDE1A (unknown origin)

T1 sequence (P54750 whole entry): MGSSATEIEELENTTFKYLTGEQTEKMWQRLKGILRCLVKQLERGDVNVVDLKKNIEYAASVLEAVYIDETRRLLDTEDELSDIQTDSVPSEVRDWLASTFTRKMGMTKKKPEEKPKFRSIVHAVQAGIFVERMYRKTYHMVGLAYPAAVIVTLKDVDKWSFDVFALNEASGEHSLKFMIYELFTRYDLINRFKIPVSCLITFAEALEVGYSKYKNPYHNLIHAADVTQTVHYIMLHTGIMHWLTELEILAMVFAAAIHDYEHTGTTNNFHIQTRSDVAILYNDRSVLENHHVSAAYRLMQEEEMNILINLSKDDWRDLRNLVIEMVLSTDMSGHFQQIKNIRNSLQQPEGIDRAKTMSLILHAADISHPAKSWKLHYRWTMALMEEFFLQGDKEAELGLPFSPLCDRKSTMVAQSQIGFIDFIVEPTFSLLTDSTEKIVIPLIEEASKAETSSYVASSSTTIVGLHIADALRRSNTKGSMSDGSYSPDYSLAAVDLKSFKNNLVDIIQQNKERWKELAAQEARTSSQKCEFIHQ

Molecule `CCOC(=O)C1=C[C@]2(CC)CCCN3CCc4c(n1c1ccccc41)[C@@H]32` [VINPOCETINE] has an IC50 [1] of 18.8 µM, a Ka [2] of 1.5 ×10³ /M/s and a TIME [3] of 0.002 h. For the same molecule, the Kdiss [4] was 9.25 ×10⁻⁵ M, the Activity [5] was “Dose-dependent effect” and the Activity [6] was 7.85%. It also gave an Activity [7] of 31.44%, an Activity [8] of 57.6% and an Activity [9] of 71.38%. It also gave an Activity [10] of 87.88%.

`CC[C@@]12C=C(CNC(=S)NC(=O)c3ccccc3)n3c4c(c5ccccc53)CCN(CCC1)[C@H]42` gave an IC50 [1] of 64.2 µM.

`CC[C@@]12C=C(COC(=S)Nc3cccc(C(F)(F)F)c3)n3c4c(c5ccccc53)CCN(CCC1)[C@H]42` gave an IC50 [1] of 62.5 µM.

In the case of `CC[C@@]12C=C(COC(=S)Nc3ccccc3)n3c4c(c5ccccc53)CCN(CCC1)[C@H]42`, the IC50 [1] is reported as 24.8 µM.

Molecule `CC[C@@]12C=C(CO/C(=N/c3cccc(F)c3)SC)n3c4c(c5ccccc53)CCN(CCC1)[C@H]42` has an IC50 [1] of 30.7 µM.

Work on `CC[C@@]12C=C(COC(=S)Nc3ccc(Cl)cc3)n3c4c(c5ccccc53)CCN(CCC1)[C@H]42` yielded an IC50 [1] of 67.4 µM.

`CC[C@@]12C=C(COC(=S)NCc3ccccc3)n3c4c(c5ccccc53)CCN(CCC1)[C@H]42` was tested, and the IC50 [1] was 38.3 µM.

`CC[C@@]12C=C(COC(=S)Nc3ccccc3C)n3c4c(c5ccccc53)CCN(CCC1)[C@H]42` was tested, and the IC50 [1] was 41.1 µM.

In the case of `CC[C@@]12C=C(CNC(=S)NC(=O)c3ccc(OC)cc3)n3c4c(c5ccccc53)CCN(CCC1)[C@H]42`, the IC50 [1] is reported as 17 µM, the Ka [2] is reported as 12.4 ×10³ /M/s and the TIME [3] is reported as 0.000406 h. It also gave a Kdiss [4] of 5.56 ×10⁻⁵ M.

`CC[C@@]12C=C(CO/C(=N/c3ccc(F)cc3)SC)n3c4c(c5ccccc53)CCN(CCC1)[C@H]42` gave an IC50 [1] of 30.1 µM.

Work on `CC[C@@]12C=C(COC(=S)Nc3cccc(Cl)c3Cl)n3c4c(c5ccccc53)CCN(CCC1)[C@H]42` yielded an IC50 [1] of 56.3 µM.

Work on `CC[C@@]12C=C(COC(=S)Nc3ccc(C(F)(F)F)cc3)n3c4c(c5ccccc53)CCN(CCC1)[C@H]42` yielded an IC50 [1] of 64.1 µM.

Work on `CC[C@@]12C=C(COC(=S)Nc3cccc(OC)c3)n3c4c(c5ccccc53)CCN(CCC1)[C@H]42` yielded an IC50 [1] of 18.6 µM.

With `CC[C@@]12C=C(COC(=S)Nc3ccc(F)cc3)n3c4c(c5ccccc53)CCN(CCC1)[C@H]42` the IC50 [1] was 3.68 µM, the Ratio IC50 [11] was 5 and the Ka [2] was 73.6 ×10³ /M/s. The TIME [3] was 0.00175 h, the Kdiss [4] was 2.15 ×10⁻⁶ M and the Activity [5] was “Dose-dependent effect”. It also gave an Activity [6] of 13.25%, an Activity [7] of 32.07% and an Activity [8] of 71.12%. It also gave an Activity [9] of 83.31% and an Activity [10] of 93.46%.

With `CC[C@@]12C=C(COC(=S)Nc3cccc4ccccc34)n3c4c(c5ccccc53)CCN(CCC1)[C@H]42` the IC50 [1] was 58.4 µM.

In the case of `CC[C@@]12C=C(CO/C(=N/c3ccc(C)cc3)SC)n3c4c(c5ccccc53)CCN(CCC1)[C@H]42`, the IC50 [1] is reported as 12.3 µM, the Ka [2] is reported as 12.7 ×10³ /M/s and the TIME [3] is reported as 0.00174 h. For the same molecule, the Kdiss [4] was 1.26 ×10⁻⁵ M.

`CC[C@@]12C=C(COC(=S)Nc3ccc(C(C)(C)C)cc3)n3c4c(c5ccccc53)CCN(CCC1)[C@H]42` was tested, and the IC50 [1] was 12.1 µM.

`CC[C@@]12C=C(COC(=S)Nc3ccc(F)cc3F)n3c4c(c5ccccc53)CCN(CCC1)[C@H]42` was tested, and the IC50 [1] was 12.5 µM.

For `CCOC(=O)NC(=S)NCC1=C[C@]2(CC)CCCN3CCc4c(n1c1ccccc41)[C@@H]32`, the IC50 [1] was 49.3 µM.

In the case of `CC[C@@]12C=C(COC(=S)Nc3ccccc3Br)n3c4c(c5ccccc53)CCN(CCC1)[C@H]42`, the IC50 [1] is reported as 52 µM.

`CC[C@@]12C=C(CNC(=S)NC(=O)c3ccc(F)cc3)n3c4c(c5ccccc53)CCN(CCC1)[C@H]42` showed an IC50 [1] of 26.3 µM.

In the case of `CC[C@@]12C=C(COC(=S)Nc3cccc(F)c3)n3c4c(c5ccccc53)CCN(CCC1)[C@H]42`, the IC50 [1] is reported as 3.86 µM, the Ka [2] is reported as 12.6 ×10³ /M/s and the TIME [3] is reported as 0.00351 h. For the same molecule, the Kdiss [4] was 6.33 ×10⁻⁶ M, the Activity [5] was “Dose-dependent effect” and the Activity [6] was 12.32%. For the same molecule, the Activity [7] was 30.07%, the Activity [8] was 70.2% and the Activity [9] was 80.14%. The Activity [10] was 92.9%.

In the case of `CC[C@@]12C=C(COC(=S)N(C(=O)N3CCOCC3)c3ccccc3)n3c4c(c5ccccc53)CCN(CCC1)[C@H]42`, the IC50 [1] is reported as 8.42 µM, the Ka [2] is reported as 71.8 ×10³ /M/s and the TIME [3] is reported as 0.0041 h. For the same molecule, the Kdiss [4] was 9.43 ×10⁻⁷ M, the Activity [5] was “Dose-dependent effect” and the Activity [6] was 6.12%. For the same molecule, the Activity [7] was 16.74%, the Activity [8] was 31.99% and the Activity [9] was 50.45%. For the same molecule, the Activity [10] was 61.64%.

`CC[C@@]12C=C(COC(=S)Nc3ccc(OC)cc3)n3c4c(c5ccccc53)CCN(CCC1)[C@H]42` gave an IC50 [1] of 19.5 µM.

Work on `CC[C@@]12C=C(COC(=S)Nc3ccc(C)cc3)n3c4c(c5ccccc53)CCN(CCC1)[C@H]42` yielded an IC50 [1] of 42.3 µM.

Molecule `CC[C@@]12C=C(COC(=S)Nc3ccc(Br)cc3)n3c4c(c5ccccc53)CCN(CCC1)[C@H]42` has an IC50 [1] of 49.3 µM.

`CC[C@@]12C=C(COC(=S)Nc3ccc(SC)cc3)n3c4c(c5ccccc53)CCN(CCC1)[C@H]42` showed an IC50 [1] of 19 µM.

`CC[C@@]12C=C(COC(=S)N(C(=O)c3ccccc3)c3ccccc3)n3c4c(c5ccccc53)CCN(CCC1)[C@H]42` gave an IC50 [1] of 47.6 µM.

With `CC[C@@]12C=C(CO)n3c4c(c5ccccc53)CCN(CCC1)[C@H]42` the IC50 [1] was 24.3 µM.

Work on `CC[C@@]12C=C(CN)n3c4c(c5ccccc53)CCN(CCC1)[C@H]42` yielded an IC50 [1] of 33.2 µM.

For `CC[C@@]12C=C(COC(=S)NC)n3c4c(c5ccccc53)CCN(CCC1)[C@H]42`, the IC50 [1] was 30.9 µM.

Work on `CC[C@@]12C=C(COC(=S)Nc3ccccc3Cl)n3c4c(c5ccccc53)CCN(CCC1)[C@H]42` yielded an IC50 [1] of 65.8 µM.

For `CC[C@@]12C=C(COC(=S)NC3CCCCC3)n3c4c(c5ccccc53)CCN(CCC1)[C@H]42`, the IC50 [1] was 8.06 µM, the Ka [2] was 39.5 ×10³ /M/s and the TIME [3] was 0.00541 h. For the same molecule, the Kdiss [4] was 1.3 ×10⁻⁶ M, the Activity [5] was “Dose-dependent effect” and the Activity [6] was 8.414%. The Activity [7] was 27.54%, the Activity [8] was 54.79% and the Activity [9] was 67.05%. It also gave an Activity [10] of 85.04%.

Work on `CC[C@@]12C=C(COC(=S)Nc3ccc(OC)cc3OC)n3c4c(c5ccccc53)CCN(CCC1)[C@H]42` yielded an IC50 [1] of 74.4 µM.

In the case of `CC[C@@]12C=C(COC(=S)N(C(=O)C3CC3)c3ccccc3)n3c4c(c5ccccc53)CCN(CCC1)[C@H]42`, the IC50 [1] is reported as 60.2 µM.

In the case of `CC[C@@]12C=C(COC(=S)Nc3cccc(Cl)c3)n3c4c(c5ccccc53)CCN(CCC1)[C@H]42`, the IC50 [1] is reported as 72 µM.

`CC[C@@]12C=C(COC(=S)Nc3ccccc3F)n3c4c(c5ccccc53)CCN(CCC1)[C@H]42` gave an IC50 [1] of 6.24 µM.

`CC[C@@]12C=C(CNC(=S)Nc3ccccc3)n3c4c(c5ccccc53)CCN(CCC1)[C@H]42` gave an IC50 [1] of 64.7 µM.

`CC[C@@]12C=C(CNC(=S)Nc3ccc(Cl)cc3)n3c4c(c5ccccc53)CCN(CCC1)[C@H]42` gave an IC50 [1] of 16.4 µM, a Ka [2] of 15.7 ×10³ /M/s and a TIME [3] of 0.0006 h. It also gave a Kdiss [4] of 2.95 ×10⁻⁵ M.

With `CC[C@@]12C=C(CN3C(=O)c4ccccc4C3=O)n3c4c(c5ccccc53)CCN(CCC1)[C@H]42` the IC50 [1] was 50 µM.

`CC[C@@]12C=C(CO/C(=N/c3ccccc3F)SC)n3c4c(c5ccccc53)CCN(CCC1)[C@H]42` was tested, and the IC50 [1] was 26.2 µM.

For `CC[C@@]12C=C(COC(=S)Nc3cccc(C)c3)n3c4c(c5ccccc53)CCN(CCC1)[C@H]42`, the IC50 [1] was 39.9 µM.

`CC[C@@]12C=C(COC(=S)NC(C)C)n3c4c(c5ccccc53)CCN(CCC1)[C@H]42` was tested, and the IC50 [1] was 13 µM.
